Test results reported in US9249129B2, “Morpholino substituted urea derivatives as mTOR inhibitors” (CELLZOME LIMITED, priority 2010, dated 2016).
Where two headings read alike, the source gives them in different places.

Legend:
PI3K delta (PI3Kd) = molecular target: T1, PI3K delta (PI3Kd) (Homo sapiens, UniProt O00329); test: kinobeads assay, PI3K delta (dot blot detection); assay type: binding
T1 construct: endogenous in cells; host or cells: Jurkat cells (ATCC TIB-152, clone E6-1), lysate
Protocol: (§1) The compounds of the present invention as described were tested in the mTOR kinobeads assay as described below. Briefly, test compounds (at various concentrations) and the affinity matrix (1:1 mixture of beads with immobilized phenylthiazole ligand 1 and beads with immobilized phenylmorpholin-chromen ligand; WO 2009/098021) were added to cell lysate aliquots and allowed to bind to the proteins in the lysate sample. After the incubation time the beads with captured proteins were separated from the lysate. Bound proteins were then eluted and the presence of mTOR, PI3K delta (PI3 Kd) and DNA-dependent protein kinase (DNA-PK) was detected and quantified using a specific antibody in a dot blot procedure and the Odyssey infrared detection system. Dose response curves for individual kinases were generated and IC50 values calculated. Kinobeads assays for PI3 kinases (WO-A 2008/015013) and for kinase selectivity profiling (WO 2009/098021) have been previously described.
(§2) The affinity matrix (beads with immobilized phenylmorpholin-chromen ligand) was washed two times with 15 ml of 1×DP buffer containing 0.2% NP40 (IGEPAL® CA-630, Sigma, #13021) and then resupended in 5.5 ml of 1×DP buffer containing 0.2% NP40 (10% beads slurry).
(§3) 5×DP buffer: 250 mM Tris-HCl pH 7.4, 25% Glycerol, 7.5 mM MgCl2, 750 mM NaCl, 5 mM Na3VO4, filter the 5×-lysis buffer through 0.22 μm filter and store in aliquots at −80° C. The 5×DP buffer is diluted to 1×DP buffer containing 1 mM DTT and 25 mM NaF.
(§4) Stock solutions of test compounds were prepared in DMSO. In a 96 well plate 30 μl solution of diluted test compounds at 5 mM in DMSO were prepared. Starting with this solution a 1:3 dilution series (9 steps) was prepared. For control experiments (no test compound) a buffer containing 2% DMSO was used. Compound CZC00018052 served as a positive control (PI-103; Calbiochem catalogue number 528100).
(§5) Jurkat cells (ATCC catalogue number TIB-152 Jurkat, clone E6-1) were grown in 1 litre Spinner flasks (Integra Biosciences, #182101) in suspension in RPMI 1640 medium (Invitrogen, #21875-034) supplemented with 10% Fetal Bovine Serum (Invitrogen) at a density between 0.15×10^6 and 1.2×10^6 cells/ml. Cells were harvested by centrifugation, washed once with 1×PBS buffer (Invitrogen, #14190-094) and cell pellets were frozen in liquid nitrogen and subsequently stored at −80° C.
(§6) Jurkat cells were homogenized in a Potter S homogenizer in lysis buffer: 50 mM Tris-HCl, 0.8% NP40, 5% glycerol, 150 mM NaCl, 1.5 mM MgCl2, 25 mM NaF, 1 mM sodium vanadate, 1 mM DTT, pH 7.5. One complete EDTA-free tablet (protease inhibitor cocktail, Roche Diagnostics, 1873580) per 25 ml buffer was added. The material was dounced 10 times using a mechanized POTTER S, transferred to 50 ml falcon tubes, incubated for 30 minutes on ice and spun down for 10 min at 20,000 g at 4° C. (10,000 rpm in Sorvall SLA600, precooled). The supernatant was transferred to an ultracentrifuge (UZ)-polycarbonate tube (Beckmann, 355654) and spun for 1 hour at 100.000 g at 4° C. (33.500 rpm in Ti50.2, precooled). The supernatant was transferred again to a fresh 50 ml falcon tube, the protein concentration was determined by a Bradford assay (BioRad) and samples containing 50 mg of protein per aliquot were prepared. The samples were immediately used for experiments or frozen in liquid nitrogen and stored frozen at −80° C.
(§7) Jurkat cell lysate (approximately 50 mg protein per plate) was thawed in a water bath at room temperature and then kept on ice. To the thawed cell lysate 1×DP 0.8% NP40 buffer containing protease inhibitors (1 tablet for 25 ml buffer; EDTA-free protease inhibitor cocktail; Roche Diagnostics 1873580) was added in order to reach a final protein concentration of 5 mg/ml total protein. The diluted cell lysate was stored on ice. […]

PI3Kγ = molecular target: T2, PI3Kγ (Homo sapiens, UniProt P48736); test: kinobeads assay, PI3K gamma (dot blot detection); assay type: binding; conditions: Table 4, read-out: Inhibition values (IC50) PI3Kg
T2 construct: endogenous in cells; host or cells: Jurkat cells (ATCC TIB-152) lysate, the only lysate described

PI3Kα = molecular target: T3, PI3Kα (Homo sapiens, UniProt P42336); test: kinobeads assay, PI3K alpha (dot blot detection); assay type: binding; conditions: Table 4, read-out: Inhibition values (IC50) PI3Ka
T3 construct: endogenous in cells; host or cells: Jurkat cells (ATCC TIB-152) lysate, the only lysate described

mTOR = molecular target: T4, mTOR (Homo sapiens, UniProt P42345); test: mTOR kinobeads assay (dot blot detection); assay type: binding
T4 construct: endogenous in cells; host or cells: Jurkat cells (ATCC TIB-152, clone E6-1), lysate
Protocol: as §1, §2, §3, §4, §5, §6, §7

PI3Kβ = molecular target: T5, PI3Kβ (Homo sapiens, UniProt P42338); test: kinobeads assay, PI3K beta (dot blot detection); assay type: binding; conditions: Table 4, read-out: Inhibition values (IC50) PI3Kb
T5 construct: endogenous in cells; host or cells: Jurkat cells (ATCC TIB-152) lysate, the only lysate described

[1] = molecular target: T6, DNA-dependent protein kinase (DNA-PK) (Homo sapiens, UniProt P78527); test: kinobeads assay, DNA-PK (dot blot detection); assay type: binding
T6 construct: endogenous in cells; host or cells: Jurkat cells (ATCC TIB-152, clone E6-1), lysate
Protocol: as §1, §2, §3, §4, §5, §6, §7

[2] = test system: S6RP serine-240/244 phosphorylation in HEK293T/17 cells; test: In vitro phospho-S6 cellular assay (pS6RP S240/244); assay type: cell-based; conditions: Homo sapiens, Table 6, 2 hours, S6RP Ser240/244, read-out: pS6 (phospho-S6 cell assay data, activity level)
Source text: In Vitro Phospho-S6 and Phospho-Akt Cellular Assay
Activation of mTOR signaling results in phosphorylation of several downstream targets. In cells, mTOR exists in two different protein complexes. The mTOR Complex-1 (mTORC1) phosphorylates and activates S6 Kinase 1 (S6K1) and S6 Kinase 2 (S6K2) (also known as p70S6K) which then phosphorylate S6 Ribosomal Protein (S6RP) (also known as RPS6). S6RP is phosphorylated on serine 235, serine 236, serine 240 and serine 244 by both pS6K1 and pS6K2. The mTOR Complex-2 (mTORC2) phosphorylates AKT on serine 473 which activates the AKT signaling pathway.
The assay measures a test compound's inhibition of S6RP serine-240/244 phosphorylation and inhibition of Akt serine-473 phosphorylation in human embryonic kidney derived HEK293T/17 cells (ATCC CRL-11268).
The HEK293T/17 cell line is maintained in DMEM media (Invitrogen catalogue number 41965-039) supplemented with 10% FCS at 37° C. in a 5% CO2 humidified incubator.
Cells are seeded in 96-well plates at 40,000 cells/well (pS6RP S240/244 assay) or 80,000 cells/well (pAkt 5473 assay) in 90 μl growth media (DMEM, 2% FCS). Plates are incubated for 1 hour in a humidified incubator to allow the cells to adhere. Cells are treated with 8 concentrations of test compounds or DMSO alone for controls (final DMSO concentration 0.1%) and incubated at 37° C. for 2 hours. Then 20 μl of 5× concentrated lysis buffer (750 mM NaCl, 100 mM Tris pH7.4, 5 mM EDTA, 5 mM EGTA, 5% Triton X-100) is added, plates are sealed and incubated for 15 minutes at 4° C. with gentle shaking. After cell lysis, 25 μl cell lysate is transferred to a MesoScale plate coated with an antibody to pS6RP Ser240/244 (MesoScale Discovery K150DGD-3) or an antibody to pAkt Ser 473 (MesoScale Discovery K151DGD-3). Plates have been blocked before by incubation with 150 μl MesoScale Discovery Blocking Solution-A for 1 hour at room temperature followed by washing with 150 μl 1× Tris wash buffer per well. After the transfer of the cell lysate to the MSD plate, the pS6RP (or pAkt) protein is captured on the coated antibody by incubation at room temperature for 1 hour with gentle shaking. After the capture step the plate is washed three times with 150 μl of 1× Tris wash buffer per well. Then 25 μl detection antibody conjugated with a Sulfo-Tag is added and incubated for 1 hour at room temperature with gentle shaking. Subsequently the antibody solution is removed and the plate is washed 3 times with 150 μl 1× Tris wash buffer per well and 150 μl Read buffer is added. The plates are analysed on a MSD 2400 Plate Reader (MesoScale Discovery). Data analysis is performed using nonlinear regression for a sigmoidal dose-response with a variable slope.

[3] = Table 4, read-out: Inhibition values (IC50) PI3Kd
[4] = Table 4, read-out: Inhibition values (IC50) mTOR
[5] = Table 4, read-out: Inhibition values (IC50) DNAPK
[6] = Table 2, Jurkat cell lysate, read-out: Inhibition values (IC50) PI3Kd
[7] = Table 2, Jurkat cell lysate, read-out: Inhibition values (IC50) mTor
[8] = Table 2, Jurkat cell lysate, read-out: Inhibition values (IC50) DNAPK

T6 sequence (P78527 whole entry): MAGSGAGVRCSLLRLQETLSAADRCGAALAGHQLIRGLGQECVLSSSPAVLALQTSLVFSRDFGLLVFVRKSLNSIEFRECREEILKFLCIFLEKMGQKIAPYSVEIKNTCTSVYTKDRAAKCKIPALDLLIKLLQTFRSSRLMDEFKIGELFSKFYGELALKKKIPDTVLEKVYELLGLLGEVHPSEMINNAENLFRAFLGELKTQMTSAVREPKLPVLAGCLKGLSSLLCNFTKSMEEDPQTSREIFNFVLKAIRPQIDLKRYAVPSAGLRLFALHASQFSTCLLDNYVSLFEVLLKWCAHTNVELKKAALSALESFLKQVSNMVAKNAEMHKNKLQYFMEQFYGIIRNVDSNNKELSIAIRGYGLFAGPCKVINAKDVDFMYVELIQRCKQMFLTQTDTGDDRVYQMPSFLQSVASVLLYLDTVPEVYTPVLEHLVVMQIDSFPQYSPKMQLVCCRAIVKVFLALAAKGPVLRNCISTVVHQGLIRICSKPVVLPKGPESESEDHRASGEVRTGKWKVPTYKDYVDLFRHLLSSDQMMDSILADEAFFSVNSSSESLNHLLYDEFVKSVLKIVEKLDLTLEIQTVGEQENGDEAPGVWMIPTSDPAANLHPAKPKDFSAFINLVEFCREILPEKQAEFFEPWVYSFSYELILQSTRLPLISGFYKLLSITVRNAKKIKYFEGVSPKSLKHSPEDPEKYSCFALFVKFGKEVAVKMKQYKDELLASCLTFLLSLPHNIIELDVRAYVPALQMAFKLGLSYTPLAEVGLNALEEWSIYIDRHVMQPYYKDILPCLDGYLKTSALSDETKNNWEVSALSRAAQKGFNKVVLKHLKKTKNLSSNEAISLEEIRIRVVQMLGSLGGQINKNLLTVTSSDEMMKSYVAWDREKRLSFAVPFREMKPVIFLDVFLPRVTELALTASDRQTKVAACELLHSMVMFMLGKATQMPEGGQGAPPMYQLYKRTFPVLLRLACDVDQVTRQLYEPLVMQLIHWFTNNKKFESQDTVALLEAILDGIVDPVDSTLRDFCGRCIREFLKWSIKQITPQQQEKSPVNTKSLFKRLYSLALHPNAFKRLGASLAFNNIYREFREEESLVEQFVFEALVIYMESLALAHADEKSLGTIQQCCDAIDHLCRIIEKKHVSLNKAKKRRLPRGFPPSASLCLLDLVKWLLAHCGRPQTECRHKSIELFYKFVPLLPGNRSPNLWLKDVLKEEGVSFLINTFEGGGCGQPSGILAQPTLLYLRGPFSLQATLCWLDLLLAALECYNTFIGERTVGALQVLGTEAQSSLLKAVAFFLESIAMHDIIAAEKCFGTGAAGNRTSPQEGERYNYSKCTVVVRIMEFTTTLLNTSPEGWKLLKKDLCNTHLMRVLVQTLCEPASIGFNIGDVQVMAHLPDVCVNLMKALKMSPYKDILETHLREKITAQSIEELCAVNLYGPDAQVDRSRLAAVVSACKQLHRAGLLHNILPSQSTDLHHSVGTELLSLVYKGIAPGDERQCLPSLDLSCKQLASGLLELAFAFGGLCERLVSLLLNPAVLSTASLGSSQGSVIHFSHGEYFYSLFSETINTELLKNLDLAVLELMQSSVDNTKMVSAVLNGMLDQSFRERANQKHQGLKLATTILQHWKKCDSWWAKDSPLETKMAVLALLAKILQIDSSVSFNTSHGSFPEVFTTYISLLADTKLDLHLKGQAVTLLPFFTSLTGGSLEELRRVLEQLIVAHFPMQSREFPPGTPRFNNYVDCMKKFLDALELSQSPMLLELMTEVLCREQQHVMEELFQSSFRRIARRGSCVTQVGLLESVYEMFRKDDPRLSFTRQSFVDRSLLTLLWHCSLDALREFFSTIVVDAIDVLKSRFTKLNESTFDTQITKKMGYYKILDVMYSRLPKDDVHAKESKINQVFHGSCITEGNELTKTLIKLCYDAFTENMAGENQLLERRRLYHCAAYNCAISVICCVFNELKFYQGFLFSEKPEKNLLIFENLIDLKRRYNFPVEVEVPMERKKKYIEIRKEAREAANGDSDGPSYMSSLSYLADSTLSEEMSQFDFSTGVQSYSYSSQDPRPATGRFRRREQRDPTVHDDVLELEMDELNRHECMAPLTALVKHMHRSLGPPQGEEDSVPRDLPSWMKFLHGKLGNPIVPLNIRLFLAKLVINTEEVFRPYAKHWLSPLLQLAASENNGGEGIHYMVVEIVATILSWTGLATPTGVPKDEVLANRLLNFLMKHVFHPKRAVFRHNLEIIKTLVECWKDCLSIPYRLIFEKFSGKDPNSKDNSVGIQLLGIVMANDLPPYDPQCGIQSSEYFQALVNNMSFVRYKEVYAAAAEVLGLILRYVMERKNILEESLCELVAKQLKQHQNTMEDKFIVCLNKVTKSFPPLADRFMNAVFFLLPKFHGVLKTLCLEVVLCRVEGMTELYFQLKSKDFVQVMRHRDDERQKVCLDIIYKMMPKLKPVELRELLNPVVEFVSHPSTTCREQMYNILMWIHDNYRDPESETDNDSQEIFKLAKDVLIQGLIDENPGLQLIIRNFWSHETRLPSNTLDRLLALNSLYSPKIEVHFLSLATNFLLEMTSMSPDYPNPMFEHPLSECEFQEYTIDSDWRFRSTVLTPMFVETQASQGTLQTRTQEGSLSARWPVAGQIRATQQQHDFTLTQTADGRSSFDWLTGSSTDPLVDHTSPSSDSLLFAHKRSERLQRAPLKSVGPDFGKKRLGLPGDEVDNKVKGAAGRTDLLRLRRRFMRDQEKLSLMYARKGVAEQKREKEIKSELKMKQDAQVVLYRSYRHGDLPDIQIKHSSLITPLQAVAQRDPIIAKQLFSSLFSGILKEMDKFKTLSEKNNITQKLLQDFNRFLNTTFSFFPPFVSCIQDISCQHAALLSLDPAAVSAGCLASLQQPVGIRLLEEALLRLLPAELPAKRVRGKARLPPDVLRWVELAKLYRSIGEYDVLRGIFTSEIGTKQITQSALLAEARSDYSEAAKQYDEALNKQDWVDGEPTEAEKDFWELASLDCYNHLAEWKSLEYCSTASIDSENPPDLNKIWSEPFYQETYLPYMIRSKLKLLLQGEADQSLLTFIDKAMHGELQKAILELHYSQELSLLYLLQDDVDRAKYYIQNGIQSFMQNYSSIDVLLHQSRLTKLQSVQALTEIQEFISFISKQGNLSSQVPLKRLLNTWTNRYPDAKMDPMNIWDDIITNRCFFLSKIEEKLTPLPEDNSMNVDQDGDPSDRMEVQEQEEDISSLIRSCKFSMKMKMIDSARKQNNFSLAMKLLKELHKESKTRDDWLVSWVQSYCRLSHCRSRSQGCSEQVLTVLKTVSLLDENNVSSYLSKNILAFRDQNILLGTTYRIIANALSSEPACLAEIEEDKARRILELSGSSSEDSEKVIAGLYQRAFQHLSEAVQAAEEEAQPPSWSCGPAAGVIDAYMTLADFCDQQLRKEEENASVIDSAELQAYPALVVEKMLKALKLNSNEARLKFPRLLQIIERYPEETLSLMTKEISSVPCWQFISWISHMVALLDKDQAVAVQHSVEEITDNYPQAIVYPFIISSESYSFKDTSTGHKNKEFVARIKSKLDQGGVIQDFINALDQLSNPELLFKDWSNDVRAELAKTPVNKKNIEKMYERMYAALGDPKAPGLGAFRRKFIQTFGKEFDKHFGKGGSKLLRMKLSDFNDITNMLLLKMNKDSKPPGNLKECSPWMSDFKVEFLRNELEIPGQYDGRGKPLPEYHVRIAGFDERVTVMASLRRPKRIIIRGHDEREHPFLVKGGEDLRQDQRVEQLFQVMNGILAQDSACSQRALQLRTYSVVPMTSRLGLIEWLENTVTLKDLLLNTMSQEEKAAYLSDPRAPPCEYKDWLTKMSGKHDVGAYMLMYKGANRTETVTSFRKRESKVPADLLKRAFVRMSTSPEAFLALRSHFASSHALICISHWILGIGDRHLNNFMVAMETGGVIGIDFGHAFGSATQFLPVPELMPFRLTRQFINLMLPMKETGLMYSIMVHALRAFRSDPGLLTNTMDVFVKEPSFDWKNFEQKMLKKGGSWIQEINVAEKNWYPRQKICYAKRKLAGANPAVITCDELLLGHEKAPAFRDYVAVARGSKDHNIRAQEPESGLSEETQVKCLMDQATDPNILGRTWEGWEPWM

C[C@H]1COCCN1c1nc(-c2ccc(NC(=O)NCCN)cc2)cc(-c2cc(F)ccc2S(C)(=O)=O)n1 [Example 84, (S)-1-(2-aminoethyl)-3-(4-(6-(5-fluoro-2-(methylsulfonyl)phenyl)-2-(3-methylmorpholino)pyrimidin-4-yl)phenyl)urea]
IC50 (PI3K delta (PI3Kd); [3]): ≥ 10 µM
IC50 (PI3Kγ): ≥ 10 µM
IC50 (PI3Kα): ≥ 10 µM
IC50 (mTOR; [4]): 0.1 to 1 µM
IC50 (PI3Kβ): ≥ 10 µM
IC50 [1, 5]: ≥ 10 µM
IC50 [2]: 1 to 10 µM

C[C@H]1COCCN1c1cc(-c2cncc(F)c2)nc(-c2ccc(NC(=O)NC3CC3)cc2F)n1 [Example 63, (S)-1-cyclopropyl-3-(3-fluoro-4-(4-(5-fluoropyridin-3-yl)-6-(3-methylmorpholino)pyrimidin-2-yl)phenyl)urea]
IC50 (PI3K delta (PI3Kd); [6]): ≥ 10 µM
IC50 (PI3K delta (PI3Kd); [3]): ≥ 10 µM
IC50 (PI3Kγ): ≥ 10 µM
IC50 (PI3Kα): ≥ 10 µM
IC50 (mTOR; [7]): 1 to 10 µM
IC50 (mTOR; [4]): 1 to 10 µM
IC50 (PI3Kβ): ≥ 10 µM
IC50 [1, 8]: ≥ 10 µM
IC50 [1, 5]: ≥ 10 µM
IC50 [2]: 0.1 to 1 µM

C[C@H]1COCCN1c1nc(-c2ccc(NC(=O)NCC(N)=O)cc2)cc(-c2cc(F)ccc2S(C)(=O)=O)n1 [Example 70, (S)-2-(3-(4-(6-(5-fluoro-2-(methylsulfonyl)phenyl)-2-(3-methylmorpholino)pyrimidin-4-yl)phenyl)ureido)acetamide]
IC50 (PI3K delta (PI3Kd); [6]): ≥ 10 µM
IC50 (PI3K delta (PI3Kd); [3]): ≥ 10 µM
IC50 (PI3Kγ): ≥ 10 µM
IC50 (PI3Kα): ≥ 10 µM
IC50 (mTOR; [7]): 1 to 10 µM
IC50 (mTOR; [4]): 1 to 10 µM
IC50 (PI3Kβ): ≥ 10 µM
IC50 [1, 8]: ≥ 10 µM
IC50 [1, 5]: ≥ 10 µM
IC50 [2]: 0.1 to 1 µM

CCNC(=O)Nc1ccc(-c2nccc(N3CCOC[C@@H]3C)n2)cc1 [Example 37, (S)-1-ethyl-3-(4-(4-(3-methylmorpholino)pyrimidin-2-yl)phenyl)urea]
IC50 (PI3K delta (PI3Kd); [6]): ≥ 10 µM
IC50 (PI3K delta (PI3Kd); [3]): ≥ 10 µM
IC50 (PI3Kγ): ≥ 10 µM
IC50 (PI3Kα): ≥ 10 µM
IC50 (mTOR; [7]): 1 to 10 µM
IC50 (mTOR; [4]): 0.1 to 1 µM
IC50 (PI3Kβ): ≥ 10 µM
IC50 [1, 8]: ≥ 10 µM
IC50 [1, 5]: ≥ 10 µM
IC50 [2]: 0.1 to 1 µM

COC1CC(NC(=O)Nc2ccc(-c3cc(-c4cc(F)ccc4S(C)(=O)=O)nc(N4CCOC[C@@H]4C)n3)cc2)C1 (stereo partly drawn) [Example 79, (S)-1-(4-(6-(5-fluoro-2-(methylsulfonyl)phenyl)-2-(3-methylmorpholino)pyrimidin-4-yl)phenyl)-3-(3-methoxycyclobutyl)urea]
IC50 (PI3K delta (PI3Kd); [3]): ≥ 10 µM
IC50 (PI3Kγ): ≥ 10 µM
IC50 (PI3Kα): ≥ 10 µM
IC50 (mTOR; [4]): 1 to 10 µM
IC50 (PI3Kβ): ≥ 10 µM
IC50 [1, 5]: ≥ 10 µM
IC50 [2]: 0.1 to 1 µM

C[C@H]1COCCN1c1nc(-c2ccc(NC(=O)NC(C)(C)CO)cc2)cc(-c2cc(F)ccc2S(C)(=O)=O)n1 [Example 69, (S)-1-(4-(6-(5-fluoro-2-(methylsulfonyl)phenyl)-2-(3-methylmorpholino)pyrimidin-4-yl)phenyl)-3-(1-hydroxy-2-methylpropan-2-yl)urea]
IC50 (PI3K delta (PI3Kd); [6]): ≥ 10 µM
IC50 (PI3K delta (PI3Kd); [3]): ≥ 10 µM
IC50 (PI3Kγ): ≥ 10 µM
IC50 (PI3Kα): ≥ 10 µM
IC50 (mTOR; [7]): 1 to 10 µM
IC50 (mTOR; [4]): 1 to 10 µM
IC50 (PI3Kβ): ≥ 10 µM
IC50 [1, 8]: ≥ 10 µM
IC50 [1, 5]: ≥ 10 µM
IC50 [2]: < 0.1 µM

C[C@H]1COCCN1c1cc(-c2cc(F)ccc2S(C)(=O)=O)nc(-c2ccc(NC(=O)NCCF)cc2F)n1 [Example 68, (S)-1-(3-fluoro-4-(4-(5-fluoro-2-(methylsulfonyl)phenyl)-6-(3-methylmorpholino)pyrimidin-2-yl)phenyl)-3-(2-fluoroethyl)urea]
IC50 (PI3K delta (PI3Kd); [6]): ≥ 10 µM
IC50 (PI3K delta (PI3Kd); [3]): ≥ 10 µM
IC50 (PI3Kγ): ≥ 10 µM
IC50 (PI3Kα): ≥ 10 µM
IC50 (mTOR; [7]): 1 to 10 µM
IC50 (mTOR; [4]): 1 to 10 µM
IC50 (PI3Kβ): ≥ 10 µM
IC50 [1, 8]: ≥ 10 µM
IC50 [1, 5]: ≥ 10 µM
IC50 [2]: 0.1 to 1 µM
